Experimental findings from PMC9252919, “Controlled masking and targeted release of redox-cycling ortho-quinones via a C–C bond-cleaving 1,6-elimination” (Nature Chemistry, 2022) are described below.

One data set deals with AML cell line HL-60. Put plainly: N-Acetyl cysteine cytotoxicity assay (trypan blue exclusion). The class given is cell-based. The note with it: Homo sapiens, 96 h. As to the method:
For assays involving cytotoxicity of β-lapachone derivatives with and without antioxidant N-acetyl cysteine, HL-60 cells were plated into 24-well plates at a concentration of 2.5 × 10^5 cells ml^−1 in 450 µl. To each well was then added 25 µl of drug diluted in PBS to obtain the correct in-plate drug concentration, and 25 µl of PBS or a stock of N-acetyl cysteine at 12 mM in PBS. DMSO was maintained at an in-plate concentration of 0.1%. After 96 h incubation, toxicity was assessed by counting of live cells using the trypan blue exclusion method with a Countess II Automated Cell Counter (ThermoFisher Scientific) according to the manufacturer’s instructions. Cell viability was determined by dividing the average live cell number of treated wells by the average live cell number for control wells treated with 0.1% DMSO. Viability for wells treated with N-acetyl cysteine was assessed by comparison with control wells treated with N-acetyl cysteine and 0.1% DMSO. IC50 values were calculated using GraphPad Prism 8 software.

The next data set addresses T1, recombinant human 5-LO (Homo sapiens, UniProt P09917).
T1 construct: made in house; host or cells: Escherichia coli BL21
T1 sequence (P09917 1-674): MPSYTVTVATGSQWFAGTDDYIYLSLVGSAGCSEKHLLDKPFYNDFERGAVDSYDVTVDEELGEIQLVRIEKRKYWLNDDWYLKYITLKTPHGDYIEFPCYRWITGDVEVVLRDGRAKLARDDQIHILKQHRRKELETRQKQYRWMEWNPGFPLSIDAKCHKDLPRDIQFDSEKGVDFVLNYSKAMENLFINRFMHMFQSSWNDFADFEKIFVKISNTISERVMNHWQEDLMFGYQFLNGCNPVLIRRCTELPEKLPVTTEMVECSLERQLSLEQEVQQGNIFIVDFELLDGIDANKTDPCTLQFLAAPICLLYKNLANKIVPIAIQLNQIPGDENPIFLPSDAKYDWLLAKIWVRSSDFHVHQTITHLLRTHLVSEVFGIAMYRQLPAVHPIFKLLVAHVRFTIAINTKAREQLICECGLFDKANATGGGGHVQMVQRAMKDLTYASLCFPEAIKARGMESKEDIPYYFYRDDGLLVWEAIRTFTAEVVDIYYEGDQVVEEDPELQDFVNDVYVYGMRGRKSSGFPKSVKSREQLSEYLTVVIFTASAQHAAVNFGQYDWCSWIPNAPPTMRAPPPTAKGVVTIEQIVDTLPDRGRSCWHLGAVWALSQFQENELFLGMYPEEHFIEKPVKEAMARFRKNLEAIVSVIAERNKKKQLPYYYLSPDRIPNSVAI
Kind of data set: Cell-free activity assay for recombinant human 5-LO. The class given is biochemical. Here is the method:
Escherichia coli (BL21) was transformed with pT3-5-LO plasmid, and recombinant 5-LO protein was expressed at 30 °C as described. Cells were lysed in 50 mM triethanolamine/HCl pH 8.0, 5 mM EDTA, 1 mM phenylmethanesulfonyl fluoride, soybean trypsin inhibitor (60 μg ml^−1) and lysozyme (1 mg ml^−1), homogenized by sonication (3 × 15 s) and centrifuged at 40,000g for 20 min at 4 °C. The 40,000g supernatant (S40) was applied to an ATP–agarose column to partially purify 5-LO as described. Aliquots of semipurified 5-LO (0.5 μg) were diluted with 1 ml ice-cold PBS containing 1 mM EDTA. Samples were preincubated with the test compound or vehicle (0.1% DMSO) with or without 1 mM DTT, as indicated. After 10 min at 4 °C, samples were prewarmed for 30 s at 37 °C, and 2 mM CaCl2 plus 20 μM arachidonic acid was added to start the formation of 5-LO products. After 10 min, the reaction was stopped by addition of 1 volume of ice-cold methanol, and the formed 5-LO products were analysed by reverse-phase HPLC as described. 5-LO products include the all-trans isomers of LTB4 (trLTB4 isomers) and 5(S)-hydroperoxy-6-trans-8,11,14-cis-eicosatetraenoic acid and its corresponding alcohol 5(S)-hydroxy-6-trans-8,11,14-cis-eicosatetraenoic acid.

Data set [1] in a line: In vitro redox-cycling phenol red/horseradish peroxidase reporter assay. The note with it: phenol red/HRP with DTT. Here is the method: The in vitro redox-cycling capability of compounds was assessed by phenol red/horseradish peroxidase (HRP) assay by adaption of a previously described protocol. Briefly, stocks were prepared as follows: (1) DTT to a concentration of […] in PBS pH 7.4 buffer; (2) compound stocks in PBS pH 7.4 buffer to 3× the desired concentration by 1,000× dilution of DMSO stocks; (3) a stock of phenol red/HRP detection reagent containing 300 µg ml^−1 phenol red and 180 µg ml^−1 HRP enzyme in PBS pH 7.4 buffer; (4) a stock of 1 M NaOH in water; (5) a stock of 100 µM H2O2 in PBS prepared by addition of a 30% solution of H2O2 in water into 1,000 µl of PBS. Into each well of a 96-well clear flat-bottomed plate was then added 40 µl of compound stock in PBS followed by 40 µl of DTT stock, followed immediately by 40 µl of phenol red/HRP reagent. A positive control with 100 µM H2O2 added in place of compound was included. The plate was incubated in the dark at room temperature for 15 min. Following this, 20 µl of 1 M NaOH was added to each well to terminate the reaction. Absorbance was immediately measured at 610 nm (MiniMax i3x Imager, Molecular Devices). Absorbance of treated wells was normalized to control wells treated with PBS only (zero redox cycling).
In general terms: In a reporter assay the amount or activity of a reporter protein is the signal.

For a further data set, the system named is ovine blood. Kind of data set: Methaemoglobin analysis in ovine blood. On the set-up: species or system sheep. The note with it: for methaemoglobin formation: in vitro ovine blood model, 1 h incubation. Here is the method: Defibrinated Oxoid sheep’s blood (ThermoScientific) was diluted to a 5% v/v suspension in PBS pH 7.4. In a 96-well microtitre plate, 150 µl of blood suspension was added to 50 µl of serially diluted compound in PBS containing a 4× stock of each compound of interest. Serial dilution of compounds from DMSO stocks into PBS was performed to achieve an in-plate DMSO concentration of 0.1%. PBS buffer alone was used as a negative control. The plate was incubated for the specified time at 37 °C. The plate was then centrifuged at 3,500 r.p.m. for 5 min. The supernatant was removed and cells lysed by resuspension in 100 µl of a solution of Triton-X-100 (1%) in PBS. Following this, 80 µl of lysed cell contents were transferred to a second microtitre plate for ultraviolet measurement. Ultraviolet absorbance was measured immediately at 630 nm (MiniMax i3x Imager, Molecular Devices). Methaemoglobin increase was determined by A630−A6300/A6300×100 , where A630 is the absorbance of the test well at 630 nm, and A6300 is the absorbance of the negative control at 630 nm.

Setting [2] is: with ROS quencher NAC (600 µM), read-out: IC50, toxicity to HL-60 with NAC.
[3] abbreviates: without NAC, read-out: IC50, toxicity to HL-60 without NAC.
The mark [4] stands for this setting: without DTT, read-out: IC50, 5-LO inhibition without DTT.

Entries after “also recorded” stand apart in the source; their conditions may differ. Read-outs that look alike come from different tables or passages of the source. Where only a bound is given, the exact number is not on record here.

With `CC1(C)CCC2=C(O1)c1ccccc1C(=O)C2=O` [Compound 1, β-lapachone, reference compound], the IC50 (usually the concentration that gives 50% inhibition) was 1.18 ± 0.18 µM with AML cell line HL-60 (setting [2]), 0.47 ± 0.26 µM with AML cell line HL-60 (setting [3]) and above 30 µM at recombinant human 5-LO (setting [4]). The “concentration above which redox activity saturates the assay” value in data set [1] is reported as “above 10 μM”. Moreover, in the data set on ovine blood (after 1 h of incubation), the “lowest dose concentration with detectable methaemoglobin formation” value is on record as 10 µM. The methaemoglobin formation result with ovine blood was “dose-dependent methaemoglobin formation”.
Regarding `CC1(C)CCC2=C(O1)c1ccccc1C(O)(Cc1ccccc1)C2=O` (stereo not drawn) [Compound 24, benzyl β-lapa-ketol], the IC50 with AML cell line HL-60 (setting [2]) is 10.5 ± 0.9 µM; with AML cell line HL-60 (setting [3]) it was 13.6 ± 1.3 µM; on recombinant human 5-LO (with DTT (1 mM), read-out: IC50, 5-LO inhibition with DTT) it was 10.4 ± 4.1 µM; on recombinant human 5-LO (setting [4]) it was 8 ± 2.5 µM. Besides, the “in vitro redox activity” value in data set [1] (up to 25 μM) is “non-redox active; also recorded: no measurable redox activity”. Further, in the data set with ovine blood, the methaemoglobin formation entry is recorded as “did not occur”.
